The values that follow come from US10206907B2, “Compounds useful for the treatment of degenerative and inflammatory diseases” (GALAPAGOS NV, priority 2008, dated 2019).

Data set [1] deals with Recombinant human JAK1 catalytic domain (Homo sapiens (Human), UniProt P23458). In words: JAK1 inhibition assay. The format is biochemical. To be noted: semi-quantitative score. Put shortly: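 Radiometric assay read by scintillation counting after phosphoric-acid washes. Percent inhibition calculated from cpm relative to vehicle and 10 μM staurosporine control. IC50 derived from compound dose-dilution series.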

The test system of data set [2] is MMP13 in SW1353 cells. In words: OSM/IL-1β signaling assay (MMP13 levels in SW1353 cells).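 Note: secreted MMP13 captured by antibody, activated with APMA and its activity read by fluorescence, inhibition scaled between vehicle-treated triggered wells (0%) and untriggered wells (100%).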 To be noted: Homo sapiens; SW1353 cells, OSM and IL-1β triggered, MMP13 levels 48 hours after triggering; read-out: MMP13 EC50. It is filed as cell-based.
The subject of data set [3] is JAK-STAT signalling in HeLa cells. In words: JAK-STAT signalling assay (OSM-triggered pSTAT1(2)-luciferase reporter in HeLa cells). The format is cell-based. To be noted: Homo sapiens; HeLa cells, OSM-triggered pSTAT1(2)-luciferase reporter; read-out: STAT signalling EC50. An outline of the steps:
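HeLa cells transiently transfected with pSTAT1(2)-luciferase reporter plus LacZ internal control, incubated overnight at 37 °C, 10% CO2, then OSM-stimulated with compound. Luciferase read by Steadylite luminescence and normalised to β-galactosidase (ONPG); percent inhibition from controls, EC50 from dose-response.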

Data set [4] deals with Recombinant human JAK2 catalytic domain (Homo sapiens (Human), UniProt O60674). The data set can be described thus: JAK2 inhibition assay. It is filed as biochemical. The conditions noted are these: semi-quantitative score. Put shortly: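 Radiometric kinase reactions ran for 90 min at 30 °C and were stopped with phosphoric acid, then washed and counted by scintillation. Percent inhibition was set relative to vehicle and to 10 μM staurosporine background. IC50 was derived from dose-dilution series.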

The nature of data set [5]: Microsomal stability, human liver microsomes. It is filed as in vitro ADME. To be noted: percentage of compound remaining after 60 minutes, 3 μM compound. As to the method:
(§1) 40 μL of deionised water was added to a well of a polypropylene Matrix 2D barcode labelled storage tube (Thermo Scientific) and pre-incubated at 37° C.
(§2) A co-factor containing MgCl2, glucose-6-phosphate and NADP+ was prepared in deionised water and placed on ice before use.
(§3) A final working solution containing liver microsomes (Xenotech of a species of interest (human, mouse, rat, dog), previously described G6PDH and co-factors was prepared and this mix was incubated for no longer than 20 minutes at room temperature.
(§4) 30 μL of the pre-heated compound dilution was added to 40 μL of pre-heated water in the Matrix tubes and 30 μL of the microsomal mix was added.
(§5) To measure percentage remaining of compound at time zero MeOH or ACN was added (1:1) to the well before adding the microsomal mix.
(§6) The samples which were not stopped are incubated at 37° C., 300 rpm and after 1 hour of incubation the reaction was stopped with MeOH or ACN (1:1).
(§7) After stopping the reaction the samples were mixed and placed on ice for 30 min to precipitate the proteins.
(§8) The samples were analyzed on LCMS with a flow rate of 1 mL/min. Solvent A was 15 mM ammonia and solvent B was methanol or acetonitrile, depending on the stop solution used. […] The percentage remaining after 1 hour incubation was calculated from time 0 and was calculated as the percentage remaining.
(§9) The data on microsomal stability are expressed as a percentage of the total amount of compound remaining after 60 minutes.

Data set [6] is described as follows: Microsomal stability, rat liver microsomes. The format is in vitro ADME. To be noted: percentage of compound remaining after 60 minutes, 3 μM compound. As to the method:
as §1, §2, §3, §4, §5, §6, §7, §8, §9

pEC50, pIC50: −log10 of the molar value.

Recombinant human JAK2 catalytic domain, sequence (O60674 808-1132): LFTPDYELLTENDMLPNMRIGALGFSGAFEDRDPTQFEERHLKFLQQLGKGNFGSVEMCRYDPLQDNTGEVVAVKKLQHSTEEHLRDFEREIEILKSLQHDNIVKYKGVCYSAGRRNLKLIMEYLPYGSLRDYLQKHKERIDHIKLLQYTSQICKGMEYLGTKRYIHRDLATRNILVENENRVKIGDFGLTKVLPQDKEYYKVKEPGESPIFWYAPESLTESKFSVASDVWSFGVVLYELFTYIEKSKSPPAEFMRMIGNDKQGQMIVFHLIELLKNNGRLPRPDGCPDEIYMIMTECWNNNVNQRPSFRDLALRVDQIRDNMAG
Recombinant human JAK1 catalytic domain, sequence (P23458 850-1154): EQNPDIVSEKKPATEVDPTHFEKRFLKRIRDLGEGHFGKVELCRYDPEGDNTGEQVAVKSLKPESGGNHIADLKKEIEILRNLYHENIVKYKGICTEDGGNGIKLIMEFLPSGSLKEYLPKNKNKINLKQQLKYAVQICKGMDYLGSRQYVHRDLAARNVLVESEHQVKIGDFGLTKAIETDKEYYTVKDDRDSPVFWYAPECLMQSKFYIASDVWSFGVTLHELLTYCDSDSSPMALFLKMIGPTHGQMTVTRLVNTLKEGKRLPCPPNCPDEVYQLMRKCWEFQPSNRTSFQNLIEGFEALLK

On to `O=C(Nc1nc2cccc(-c3ccc(-c4ccccc4)cc3)n2n1)C1CC1` [Compound 7, N-(5-(biphenyl-4-yl)-[1,2,4]triazolo[1,5-a]pyridin-2-yl)cyclopropanecarboxamide], for which the figures for the pIC50 in data set [1] and in data set [4] were over 7.00 and 6.30 to 7.00, respectively. The pEC50 in data set [2] and in data set [3] was under 6.00 throughout. The “Microsomal Stability Human (%)” value in data set [5] is “** (** 26-50)”. Moreover, in data set [6], the “Microsomal Stability Rat (%)” value is on record as “** (** 26-50)”.
In the case of `O=C(Nc1nc2cccc(-c3ccc(CC(=O)N4CCS(=O)(=O)CC4)cc3)n2n1)C1CC1` [Compound 267, Cyclopropanecarboxylic acid (5-{4-[2-(1,1-dioxo-thiomorpholin-4-yl)-2-oxo-ethyl]-phenyl}-[1,2,4]triazolo[1,5-a]pyridin-2-yl)-amide], the figures for the pIC50 in data set [1] and in data set [4] were over 7.00 and 6.30 to 7.00, respectively. Moreover, the pEC50 in data set [2] and in data set [3] was under 6.00 in each case. Also, the “Microsomal Stability Human (%)” value in data set [5] is “**** (**** 76-100)”. Further, the “Microsomal Stability Rat (%)” value in data set [6] is “**** (**** 76-100)”.
As to `N#CCc1ccc(NCc2ccc(-c3cccc4nc(NC(=O)C5CC5)nn34)cc2)cc1` [Compound 224], the pIC50 in data set [1] and in data set [4] was over 7.00 throughout. The pEC50 in data set [2] was under 6.00; in data set [3], 6.30 to 7.00. For the same compound, in data set [5], the “Microsomal Stability Human (%)” value is listed as “* (* 0-25)”. Further, the “Microsomal Stability Rat (%)” value in data set [6] was “* (* 0-25)”.
In the case of `Cc1noc(C)c1CCOc1ccc(-c2cccc3nc(NC(=O)C4CC4)nn23)cc1` [Compound 201, Cyclopropanecarboxylic acid (5-{4-[2-(3,5-dimethyl-isoxazol-4-yl)-ethoxy]-phenyl}-[1,2,4]triazolo[1,5-a]pyridin-2-yl)-amide], the pIC50 in data set [1] is over 7.00; in data set [4], 6.30 to 7.00. Further, the pEC50 is 6.00 to 6.30 in data set [2] and 6.30 to 7.00 in data set [3]. The “Microsomal Stability Human (%)” value in data set [5] was “* (* 0-25)”. In data set [6], the “Microsomal Stability Rat (%)” value is on record as “* (* 0-25)”.
Take `CN(C(=O)c1ccc(-c2cccc3nc(NC(=O)C4CC4)nn23)cc1)C1CCS(=O)(=O)C1` (stereo not drawn) [Compound 273, 4-[2-(Cyclopropanecarbonyl-amino)-[1,2,4]triazolo[1,5-a]pyridin-5-yl]-N-(1,1-dioxo-tetrahydrothiophen-3-yl)-N-methyl-benzamide]: the pIC50 in data set [1] and in data set [4] was over 7.00 in each case. For the same compound, the pEC50 in data set [2] and in data set [3] was under 6.00 throughout. Further, the “Microsomal Stability Human (%)” value in data set [5] was “**** (**** 76-100)”. Besides, the “Microsomal Stability Rat (%)” value in data set [6] is recorded as “**** (**** 76-100)”.
Turning to `O=C(Nc1nc2cccc(-c3ccc(CNc4ccc(Cl)cc4F)cc3)n2n1)C1CC1` [Compound 212, Cyclopropanecarboxylic acid (5-{4-[(4-chloro-2-fluoro-phenylamino)-methyl]-phenyl}-[1,2,4]triazolo[1,5-a]pyridin-2-yl)-amide], the pIC50 in data set [1] and in data set [4] was over 7.00 in each case. The pEC50 was 6.30 to 9.00 in data set [2] and 6.30 to 7.00 in data set [3]. Besides, the “Microsomal Stability Human (%)” value in data set [5] is on record as “*** (*** 51-75)”. Further, the “Microsomal Stability Rat (%)” value in data set [6] is reported as “** (** 26-50)”.
Turning to `O=C(Nc1nc2cccc(-c3ccc(OCc4ccc[n+]([O-])c4)cc3)n2n1)C1CC1` [Compound 196, Cyclopropanecarboxylic acid {5-[4-(1-hydroxy-pyridin-3-ylmethoxy)-phenyl]-[1,2,4]triazolo[1,5-a]pyridin-2-yl}-amide], the pIC50 is over 7.00 in data set [1] and 6.30 to 7.00 in data set [4]. In addition, the pEC50 in data set [2] and in data set [3] was under 6.00 throughout. Moreover, the “Microsomal Stability Human (%)” value in data set [5] was “**** (**** 76-100)”. The “Microsomal Stability Rat (%)” value in data set [6] is reported as “**** (**** 76-100)”.
As for `O=C(Nc1nc2cccc(-c3ccc(CN4CCC(F)CC4)cc3)n2n1)C1CC1` [Compound 233, Cyclopropanecarboxylic acid {5-[4-(4-fluoro-piperidin-1-ylmethyl)-phenyl]-[1,2,4]triazolo[1,5-a]pyridin-2-yl}-amid], the pIC50 in data set [1] and in data set [4] was over 7.00 in each case. In addition, the negative-log EC50 (pEC50) was 6.00 to 6.30 in data set [2] and under 6.00 in data set [3]. Besides, the “Microsomal Stability Human (%)” value in data set [5] is given as “*** (*** 51-75)”. In data set [6], the “Microsomal Stability Rat (%)” value was “** (** 26-50)”.
Turning to `O=C(Nc1nc2cccc(-c3ccc(CC(=O)N4CCCCC4)cc3)n2n1)C1CC1` [Compound 266, Cyclopropanecarboxylic acid {5-[4-(2-oxo-2-piperidin-1-yl-ethyl)-phenyl]-[1,2,4]triazolo[1,5-a]pyridin-2-yl}-amide], the pIC50 in data set [1] is over 7.00; in data set [4] it was 6.30 to 7.00. Further, the values for the negative logarithm of the EC50 (pEC50) in data set [2] and in data set [3] were under 6.00 and 6.00 to 6.30, respectively. The “Microsomal Stability Human (%)” value in data set [5] was “* (* 0-25)”. Also, in data set [6], the “Microsomal Stability Rat (%)” value is “**** (**** 76-100)”.
Turning to `O=C(Nc1nc2cccc(-c3ccc(OCc4ccc(Cl)nc4)cc3)n2n1)C1CC1` [Compound 198, Cyclopropanecarboxylic acid {5-[4-(6-chloro-pyridin-3-ylmethoxy)-phenyl]-[1,2,4]triazolo[1,5-a]pyridin-2-yl}-amide], the pIC50 in data set [1] and in data set [4] was over 7.00 in each case. The pEC50 in data set [2] was under 6.00; in data set [3], 6.30 to 7.00. In addition, the “Microsomal Stability Human (%)” value in data set [5] is reported as “*** (*** 51-75)”. In addition, the “Microsomal Stability Rat (%)” value in data set [6] is “*** (*** 51-75)”.
Take `O=C(Nc1ccc(-c2cccc3nc(NC(=O)C4CC4)nn23)cc1)c1ccccc1` [Compound 21, N-(4-(2-(cyclopropanecarboxamido)-[1,2,4]triazolo[1,5-a]pyridin-5-yl)phenyl)benzamide]: the pIC50 in data set [1] was over 7.00; in data set [4], 6.30 to 7.00. Also, the pEC50 in data set [2] and in data set [3] was under 6.00 in each case. Besides, the “Microsomal Stability Human (%)” value in data set [5] is given as “*** (*** 51-75)”. For the same compound, the “Microsomal Stability Rat (%)” value in data set [6] is reported as “**** (**** 76-100)”.
In the case of `CC(=O)N(Cc1cccnc1)c1ccc(-c2cccc3nc(NC(=O)C4CC4)nn23)cc1` [Compound 202, Cyclopropanecarboxylic acid {5-[4-(acetyl-pyridin-3-ylmethyl-amino)-phenyl]-[1,2,4]triazolo[1,5-a]pyridin-2-yl}-amide], the pIC50 in data set [1] and in data set [4] was over 7.00 in each case. Besides, the pEC50 in data set [2] and in data set [3] was under 6.00 throughout. The “Microsomal Stability Human (%)” value in data set [5] is recorded as “* (* 0-25)”. Further, the “Microsomal Stability Rat (%)” value in data set [6] is recorded as “* (* 0-25)”.
Consider `O=C(Nc1nc2cccc(-c3ccc(CNc4ccccc4F)cc3)n2n1)C1CC1` [Compound 226, Cyclopropanecarboxylic acid (5-{4-[(2-fluoro-phenylamino)-methyl]-phenyl}-[1,2,4]triazolo[1,5-a]pyridin-2-yl)-amide], for which the pIC50 in data set [1] and in data set [4] was over 7.00 each time. In addition, the pEC50 is 6.00 to 6.30 in data set [2] and 6.30 to 7.00 in data set [3]. Moreover, the “Microsomal Stability Human (%)” value in data set [5] was “* (* 0-25)”. The “Microsomal Stability Rat (%)” value in data set [6] is “* (* 0-25)”.
As to `O=C(Nc1nc2cccc(-c3ccc(CNc4c(F)cccc4F)cc3)n2n1)C1CC1` [Compound 246, Cyclopropanecarboxylic acid (5-{4-[(2,6-difluoro-phenylamino)-methyl]-phenyl}-[1,2,4]triazolo[1,5-a]pyridin-2-yl)-amide], the negative-log IC50 (pIC50) in data set [1] and in data set [4] was over 7.00 throughout. Further, the pEC50 in data set [2] is 6.00 to 6.30; in data set [3], 6.30 to 7.00. Further, the “Microsomal Stability Human (%)” value in data set [5] is given as “* (* 0-25)”. The “Microsomal Stability Rat (%)” value in data set [6] is on record as “* (* 0-25)”.
In the case of `N#CCc1ccccc1NCc1ccc(-c2cccc3nc(NC(=O)C4CC4)nn23)cc1` [Compound 225, Cyclopropanecarboxylic acid (5-{4-[(2-cyanomethyl-phenylamino)-methyl]-phenyl}-[1,2,4]triazolo[1,5-a]pyridin-2-yl)-amide], the pIC50 in data set [1] and in data set [4] was over 7.00 throughout. Moreover, the pEC50 in data set [2] was 6.30 to 9.00; in data set [3] it was 6.30 to 7.00. Further, the “Microsomal Stability Human (%)” value in data set [5] was “* (* 0-25)”. Also, the “Microsomal Stability Rat (%)” value in data set [6] is recorded as “* (* 0-25)”.
